Our source for the relative viability values is the supplement of paper PMC10307832.

What all share (test): relative viability (nuclei count vs DMSO), 5 days (fraction); higher = more cells survive
Compound in the assay “Neratinib + OSI-027”: CCOc1cc2ncc(C#N)c(Nc3ccc(OCc4ccccn4)c(Cl)c3)c2cc1NC(=O)/C=C/CN(C)C [Neratinib] + COc1cccc2cc(-c3nc([C@H]4CC[C@H](C(=O)O)CC4)n4ncnc(N)c34)[nH]c12 [OSI-027] (partner 0.5 µM)
In outline:
(§1)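 The day after seeding in 1536-well plates, lung cancer cell lines were treated by pin tool with a single drug, or with a fixed anchor-drug dose together with five library-drug doses (not always all listed) in √10 steps. After 5 days, a combined fix-and-stain solution (final 0.05% Triton X-100, 1% formaldehyde, 1 ug/ml Hoechst) was added. Nuclei counted on 4× images gave relative viability as treated counts over vehicle counts, reported as the median of duplicate plates.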

Compound in the assay “Neratinib + Trametinib”: CCOc1cc2ncc(C#N)c(Nc3ccc(OCc4ccccn4)c(Cl)c3)c2cc1NC(=O)/C=C/CN(C)C [Neratinib] + CC(=O)Nc1cccc(-n2c(=O)n(C3CC3)c(=O)c3c(Nc4ccc(I)cc4F)n(C)c(=O)c(C)c32)c1 [Trametinib] (partner 0.02 µM)
In a few lines:
as §1

Compound in the assay “Neratinib + Linsitinib”: CCOc1cc2ncc(C#N)c(Nc3ccc(OCc4ccccn4)c(Cl)c3)c2cc1NC(=O)/C=C/CN(C)C [Neratinib] + C[C@]1(O)C[C@@H](c2nc(-c3ccc4ccc(-c5ccccc5)nc4c3)c3c(N)nccn32)C1 [Linsitinib] (partner 1 µM)
In a few lines: as §1

Compound in the assay “Neratinib + Lapatinib”: CCOc1cc2ncc(C#N)c(Nc3ccc(OCc4ccccn4)c(Cl)c3)c2cc1NC(=O)/C=C/CN(C)C [Neratinib] + CS(=O)(=O)CCNCc1ccc(-c2ccc3ncnc(Nc4ccc(OCc5cccc(F)c5)c(Cl)c4)c3c2)o1 [Lapatinib] (partner 2 µM)
In a few lines: as §1

On to PC-14, for which the relative viability amounted to 0.739 with Neratinib + OSI-027 (first compound 0.01 µM); 0.987 with Neratinib + OSI-027 (first compound 0.03162 µM); 0.798 in the assay with Neratinib + OSI-027 (first compound 0.1 µM); 0.177 in the assay with Neratinib + OSI-027 (first compound 0.3162 µM); 0.0699 with Neratinib + OSI-027 (first compound 1 µM); 0.717 in the assay with Neratinib + Trametinib (first compound 0.01 µM). For the same cell line, the relative viability is 0.832 in the assay with Neratinib + Trametinib (first compound 0.03162 µM); 0.573 with Neratinib + Trametinib (first compound 0.1 µM); 0.096 with Neratinib + Trametinib (first compound 0.3162 µM); 0.0456 with Neratinib + Trametinib (first compound 1 µM); 0.979 with Neratinib + Linsitinib (first compound 0.01 µM); 1.1 in the assay with Neratinib + Linsitinib (first compound 0.03162 µM). For the same cell line, the relative viability came to 0.872 with Neratinib + Linsitinib (first compound 0.1 µM); 0.639 with Neratinib + Linsitinib (first compound 0.3162 µM); 0.216 with Neratinib + Linsitinib (first compound 1 µM); 0.365 with Neratinib + Lapatinib (first compound 0.01 µM); 0.327 with Neratinib + Lapatinib (first compound 0.03162 µM); 0.267 with Neratinib + Lapatinib (first compound 0.1 µM). Further, the relative viability in the assay with Neratinib + Lapatinib (first compound 0.3162 µM) came to 0.285; with Neratinib + Lapatinib (first compound 1 µM) it was 0.302.

Regarding RERF-LC-KJ, the relative viability in the assay with Neratinib + OSI-027 (first compound 0.01 µM) was determined as 0.539; with Neratinib + OSI-027 (first compound 0.1 µM), 0.477; with Neratinib + OSI-027 (first compound 0.3162 µM) it was 0.434; with Neratinib + OSI-027 (first compound 1 µM), 0.326; with Neratinib + Trametinib (first compound 0.01 µM), 0.844; with Neratinib + Trametinib (first compound 0.03162 µM), 0.889. Further, the relative viability with Neratinib + Trametinib (first compound 0.1 µM) amounted to 0.785; with Neratinib + Trametinib (first compound 0.3162 µM), 0.694; in the assay with Neratinib + Trametinib (first compound 1 µM), 0.504; with Neratinib + Linsitinib (first compound 0.01 µM), 0.943; in the assay with Neratinib + Linsitinib (first compound 0.1 µM), 0.865; in the assay with Neratinib + Linsitinib (first compound 0.3162 µM) it was 0.714. Also, the relative viability in the assay with Neratinib + Linsitinib (first compound 1 µM) was found to be 0.712; with Neratinib + Lapatinib (first compound 0.01 µM) it was 0.78; in the assay with Neratinib + Lapatinib (first compound 0.03162 µM) it was 0.923; with Neratinib + Lapatinib (first compound 0.1 µM), 0.854; in the assay with Neratinib + Lapatinib (first compound 1 µM) it was 0.915.

Take SK-LU-1: the relative viability with Neratinib + OSI-027 (first compound 0.01 µM) was found to be 0.373; with Neratinib + OSI-027 (first compound 0.03162 µM), 0.384; with Neratinib + OSI-027 (first compound 0.1 µM), 0.305; with Neratinib + OSI-027 (first compound 0.3162 µM) it was 0.238; with Neratinib + OSI-027 (first compound 1 µM) it was 0.135; in the assay with Neratinib + Trametinib (first compound 0.01 µM), 0.517. In addition, the relative viability amounted to 0.58 with Neratinib + Trametinib (first compound 0.03162 µM); 0.457 in the assay with Neratinib + Trametinib (first compound 0.1 µM); 0.442 with Neratinib + Trametinib (first compound 0.3162 µM); 0.344 with Neratinib + Trametinib (first compound 1 µM); 1.15 with Neratinib + Linsitinib (first compound 0.01 µM); 1.31 in the assay with Neratinib + Linsitinib (first compound 0.03162 µM). The relative viability was 0.876 with Neratinib + Linsitinib (first compound 0.1 µM); 0.629 with Neratinib + Linsitinib (first compound 0.3162 µM); 0.401 in the assay with Neratinib + Linsitinib (first compound 1 µM); 0.921 with Neratinib + Lapatinib (first compound 0.01 µM); 0.904 with Neratinib + Lapatinib (first compound 0.03162 µM); 0.809 in the assay with Neratinib + Lapatinib (first compound 0.1 µM). Besides, the relative viability with Neratinib + Lapatinib (first compound 0.3162 µM) stood at 0.74; with Neratinib + Lapatinib (first compound 1 µM), 0.507.

Regarding SK-MES-1, the relative viability in the assay with Neratinib + OSI-027 (first compound 0.01 µM) came out at 0.566; with Neratinib + OSI-027 (first compound 0.03162 µM) it was 0.687; with Neratinib + OSI-027 (first compound 0.1 µM), 0.538; with Neratinib + OSI-027 (first compound 0.3162 µM) it was 0.305; with Neratinib + OSI-027 (first compound 1 µM), 0.185; with Neratinib + Trametinib (first compound 0.01 µM) it was 0.648. The relative viability with Neratinib + Trametinib (first compound 0.03162 µM) turned out to be 0.564; with Neratinib + Trametinib (first compound 0.1 µM), 0.564; in the assay with Neratinib + Trametinib (first compound 0.3162 µM), 0.332; with Neratinib + Linsitinib (first compound 0.03162 µM), 1.09; with Neratinib + Linsitinib (first compound 0.1 µM) it was 0.888; with Neratinib + Linsitinib (first compound 0.3162 µM) it was 0.507. The relative viability with Neratinib + Linsitinib (first compound 1 µM) was found to be 0.395; with Neratinib + Lapatinib (first compound 0.01 µM) it was 0.512; with Neratinib + Lapatinib (first compound 0.03162 µM), 0.479; with Neratinib + Lapatinib (first compound 0.1 µM) it was 0.393; with Neratinib + Lapatinib (first compound 0.3162 µM) it was 0.435; with Neratinib + Lapatinib (first compound 1 µM) it was 0.364.

Take SW 1573: the relative viability is 0.685 with Neratinib + OSI-027 (first compound 0.01 µM); 0.595 with Neratinib + OSI-027 (first compound 0.03162 µM); 0.542 with Neratinib + OSI-027 (first compound 0.1 µM); 0.544 with Neratinib + OSI-027 (first compound 0.3162 µM); 0.276 with Neratinib + OSI-027 (first compound 1 µM); 0.554 with Neratinib + Trametinib (first compound 0.01 µM). The relative viability was found to be 0.57 with Neratinib + Trametinib (first compound 0.03162 µM); 0.497 with Neratinib + Trametinib (first compound 0.1 µM); 0.593 with Neratinib + Trametinib (first compound 0.3162 µM); 0.276 in the assay with Neratinib + Trametinib (first compound 1 µM); 0.742 with Neratinib + Linsitinib (first compound 0.01 µM); 0.89 with Neratinib + Linsitinib (first compound 0.03162 µM). Moreover, the relative viability with Neratinib + Linsitinib (first compound 0.1 µM) was 0.778; in the assay with Neratinib + Linsitinib (first compound 0.3162 µM) it was 0.782; with Neratinib + Linsitinib (first compound 1 µM) it was 0.642; with Neratinib + Lapatinib (first compound 0.01 µM), 1.27; with Neratinib + Lapatinib (first compound 0.03162 µM), 1.13; in the assay with Neratinib + Lapatinib (first compound 0.1 µM), 1.24. In addition, the relative viability in the assay with Neratinib + Lapatinib (first compound 0.3162 µM) came to 1.15; with Neratinib + Lapatinib (first compound 1 µM), 1.16.

Consider UMC-11, for which the relative viability came out at 0.487 with Neratinib + OSI-027 (first compound 0.01 µM); 0.487 in the assay with Neratinib + OSI-027 (first compound 0.03162 µM); 0.415 with Neratinib + OSI-027 (first compound 0.1 µM); 0.414 with Neratinib + OSI-027 (first compound 0.3162 µM); 0.308 in the assay with Neratinib + OSI-027 (first compound 1 µM); 0.621 with Neratinib + Trametinib (first compound 0.01 µM). Besides, the relative viability was 0.879 in the assay with Neratinib + Trametinib (first compound 0.03162 µM); 0.673 with Neratinib + Trametinib (first compound 0.1 µM); 0.666 with Neratinib + Trametinib (first compound 0.3162 µM); 0.686 with Neratinib + Trametinib (first compound 1 µM); 0.925 with Neratinib + Linsitinib (first compound 0.01 µM); 1.07 in the assay with Neratinib + Linsitinib (first compound 0.03162 µM). Moreover, the relative viability was found to be 0.655 with Neratinib + Linsitinib (first compound 0.1 µM); 0.921 in the assay with Neratinib + Linsitinib (first compound 0.3162 µM); 0.684 with Neratinib + Linsitinib (first compound 1 µM); 1.03 in the assay with Neratinib + Lapatinib (first compound 0.01 µM); 1.11 with Neratinib + Lapatinib (first compound 0.03162 µM); 0.604 in the assay with Neratinib + Lapatinib (first compound 0.1 µM). The relative viability with Neratinib + Lapatinib (first compound 0.3162 µM) amounted to 0.841; with Neratinib + Lapatinib (first compound 1 µM), 0.745.
